Tested on: C57BL/6J mice
Assay: Tail-flick test
Type: in vivo
Details: Mus musculus, sc, 10-30 mg/kg dose range
Description: C57BL/6J (8-12 weeks, 22-31 g) were purchased from the Jackson Laboratory (Bar Harbor, ME) and housed 5 mice per cage with food and water available ad libitum. Mice were maintained on a 12-hr light/dark cycle (lights on 7:00-19:00) and all testing was done in the light cycle. Temperature was kept constant at 22±2° C., and relative humidity was maintained at 50±5%. Mice were moved to the testing room 30 minutes before the experiment to allow for acclimation. The body weight of each mouse and base tail-flick value were recorded. Mice were administered a 1 mg/kg s.c. dose of compound solution (volume of injection 220-310 μL based on body weight). After injection mice were returned to the home cage and allowed to rest for 30 minutes. Thirty minutes post injection the tail-flick measurement was taken using thermal stimulation via IR on a Ugo Basile unit set to 52 PSU (ten seconds was used as a maximum latency to prevent tissue damage). Mice were then administered 3 mg/kg s.c. dose, allowed to rest for 30 minutes, followed by another tail-flick measurement. […] Tail-flick latencies for the different doses were expressed as percentage of maximum potential effect (% MPE) by subtracting the experimental value by the base tail flick value then dividing by the difference between the maximum possible latency (10 seconds) and the base tail-flick value and finally multiplying by 100. […]

c1ccc2c3c([nH]c2c1)C1CCCN(CC3)C1 (stereo not shown) [Compound 61, 1,4,5,6,7,8-hexahydro-2H-3,7-methanoazonino[5,4-b]indole]
ED50: 16.5 mg/kg

From patent US20230382919A1, “OXA- IBOGAINE INSPIRED ANALOGUES FOR TREATMENT OF NEUROLOGICAL AND PSYCHIATRIC DISORDERS” (The Trustees of Columbia University in the City of New York, priority 2021, published 2023)
